Measured values as given in patent US20250382556A1, “MODULATION OF THE BRANCHED-CHAIN METABOLITE CONTENT OF FRUITS AND VEGETABLES” (BOARD OF TRUSTEES OF MICHIGAN STATE UNIVERSITY, priority 2024, published 2025).

Tested on: ripe ‘Red Delicious’ apple fruit
Assay: Precursor (isoleucine, α-ketoacid) content of ripe apple peel via derivatization and GCMS, time course
Format: in vivo, Malus x domestica Borkh.
Conditions: 1 mM rimsulfuron
Method: ‘Red Delicious’ apple fruit held in refrigerated air for 5 months (see above) plus 1 day at 22° C. and at an advanced ripeness stage (‘ripe’) were treated with rimsulfuron (1 mM) with 0.2% Tween 20 on day 0 of the study and for the next three consecutive days as above described. The fruit were evaluated daily for volatile emissions (see below) for eight days. On days 0, 2, 4, and 7, representative treated and untreated fruit were selected for tissue collection for metabolite analysis (see below). On day 7, samples of fruit peel were fed, as described above, with water or 20 mM isoleucine or α-keto-β-methylvalerate.
To simultaneously quantify branched-chain α-ketoacids and amino acids, 100 mg of ground frozen tissue was extracted in 2 mL of 1:1 acetonitrile: water containing 13 μM U-^13C, ^15N labeled amino acids (MilliporeSigma) as internal standard for 15 min in a 65° C. water bath. […]
One microliter of derivatized sample was analyzed with a GC (Agilent 6890) coupled to a time-of-flight MS (Pegasus II, LECO). […]
Compounds were identified by retention time and spectra of derivatized authenticated standards. Quantification was performed by comparison of the ratios of peak areas of metabolites to labeled internal standards. […] Calibration standards consisted of equimolar mixtures of the analyzed compounds that mimicked 15-0.15 nmoles of analyte in the final derivatized sample. […]

In the case of CCS(=O)(=O)c1cccnc1S(=O)(=O)NC(=O)Nc1nc(OC)cc(OC)n1 [rimsulfuron, N-((4,6-dimethoxypyrimidin-2-yl)aminocarbonyl)-3-(ethylsulfonyl)-2-pyridinesulfonamide], the “isoleucine content, plateau, of control levels” value is reported as 29.1% and the “α-keto-β-methylvalerate content, plateau, of control levels” value is reported as 51.1%.
